# “And” between values parts separate entries of the source, which are not always exact repeats. Identical values can stand only once.
# Experiment: Repeated-treatment efficacy for removing an intravenous dose of 238Pu (excretion, tissue retention, clinical observations), female and male arms
# Format: in vivo, Swiss-Webster mice
# Conditions: for tissue content of 238Pu compared to saline control group: all analyzed tissues, all dosing regimens; for % Recovered Dose - Feces per Day: group H
# Experimental: The objective of this study was to characterize the efficacy of 3,4,3-L1(1,2-HOPO) at enhancing elimination from an internal plutonium burden in female and male Swiss-Webster mice administered a soluble citrate complex of ^238Pu and treated multiple times, starting at 24 hours after the exposure. Efficacy was evaluated by comparing the tissue contents, urinary and fecal excretions of ^238Pu in treated animals versus untreated animals.
# The medical countermeasure 3,4,3-L1(1,2-HOPO) was administered parenterally (ip) or orally (po) via consecutive injections or gavages (six daily or twelve twice daily) starting at 24 hours post contamination at the following four selected doses: 30 μmol/kg ip, 150 μmol/kg po, 300 μmol/kg po, and 600 μmol/kg po (equivalent to respective approximate human doses range of […], using the accepted conversion system of mouse doses into human equivalent doses—HED—based on body surface area). Oral doses also included the permeability enhancer selected during formulation development work.
# • Challenge isotope: ^238Pu • Challenge dose: 25 nCi (i.e., approximately 0.8 μCi/kg) • Route of contamination: Intravenous (iv) tail-vein • Route of treatment: Intraperitoneal Injection (ip) or Oral (po) • Frequency of treatment: Multiple (once- or twice-daily for 6 days) doses, starting 24 hr postcontamination • Treatment dose calculation: Dose calculations (mg/kg or μmol/kg) for the decorporation agent were based on the individual body weight measured after contamination. • Study Duration: 11 days, in-life
# c. […] Test article and control dose formulations were prepared within 1 day of dose administration, by weighing out the appropriate amount of test article, dispersing in vehicle. For ip solutions, the test article was used alone, while for oral suspensions, a mixture of test article and excipient (90:10, w:w) was used. The pH was adjusted to 7.0-7.4 for ip administration and 5.0-5.5 for oral administration with sterile NaOH. Dose formulations were prepared at room temperature and filter-sterilized. • Storage: 2-8° C.; refrigerated; protected from light. • Characterization: The concentration of each test article formulation was verified by high-performance liquid chromatography-mass spectrometry. • Test Article Handling: Test, reference, and control article formulations were handled with the use of eye protection, gloves, and a protective laboratory coat. • Correct Dose Assurance: The test article was weighed with calibrated balances. The administration of each dose formulation was properly documented, and the amount administered to each animal recorded.
# e. Experimental Procedures (In-Life Evaluations and Euthanasia) • Contamination: Single administration by intravenous (iv) tail-vein injection (0.2 mL injection volume) under isoflurane anesthesia. Three standard 0.2 mL injections were performed into polyethylene bottles and pre-loaded with aliquots of concentrated nitric acid on each injection day. Six female and six male mice were culled for necropsy 1 hr post-contamination and were used as standards. A11 standards were processed and counted together with the final samples to allow verification of the contamination dose. • Dose Administration: Single administration by intraperitoneal injection (ip) or oral gavage (po) under isoflurane anesthesia. • Mortality/Morbidity: Assessed at least once daily. • Clinical Observations: Recorded once daily (4 hr post-dose on day of treatment), or more often as clinical signs warranted. […]
# [1] = female mice, 30 μmol/kg, IP, 11-day necropsy
# [2] = female mice, 30 μmol/kg, IP, 11-day necropsy, over untreated control group
# [3] = female mice, 30 μmol/kg, IP, 11-day necropsy, vs untreated control group
# [4] = male animals, Day-11 necropsy, animal group H
# [5] = male arm table, Day 11 necropsy, animal group H
# [6] = male mice, 30 μmol/kg, IP, 11-day necropsy
# [7] = male mice, 30 μmol/kg, IP, 11-day necropsy, over untreated control group
# [8] = male mice, 30 μmol/kg, IP, 11-day necropsy, vs untreated control group
smiles,measurement,setting,value
"O=C(O)CN(CCN(CC(=O)O)CC(=O)O)CCN(CC(=O)O)CC(=O)O [DTPA, diethylenetriaminepentaacetic acid, reference compound]",238Pu excretion path,female and male mice,through urine
same,"^238Pu excretion, Total Excretion, Avg",[1],72.13 percent recovered dose
same,"^238Pu excretion, Total Feces, Avg",[1],30.20 percent recovered dose
same,"^238Pu excretion, Total Urine, Avg",[1],41.93 percent recovered dose
same,"^238Pu retention, GI Tract, Avg",[1],0.54 percent recovered dose
same,"^238Pu retention, Kidney, Avg",[1],0.13 percent recovered dose
same,"^238Pu retention, Liver, Avg",[1],4.14 percent recovered dose
same,"^238Pu retention, Soft Tissue, Avg",[1],1.66 percent recovered dose
same,"^238Pu retention, Total Body, Avg",[1],27.87 percent recovered dose
same,"^238Pu retention, Total Bone, Avg",[1],21.40 percent recovered dose
same,"^238Pu percent increase in excretion, Total Excretion",[2],143.34%
same,"^238Pu percent increase in excretion, Total Feces",[2],106.02%
same,"^238Pu percent increase in excretion, Total Urine",[2],192.03%
same,"^238Pu percent tissue reduction, GI Tract",[3],59.99%
same,"^238Pu percent tissue reduction, Kidney",[3],51.24%
same,"^238Pu percent tissue reduction, Liver",[3],65.62%
same,"^238Pu percent tissue reduction, Soft Tissue",[3],41.56%
same,"^238Pu percent tissue reduction, Total Body",[3],43.90%
same,"^238Pu percent tissue reduction, Total Bone",[3],35.51%
same,tissue content of 238Pu compared to saline control group,female,large reductions
same,% Recovered Dose Combined Body,[4],31.58% and 24.29% and 33.79% and 30.93% and 32.00% and 29.03% and 23.14% and 27.41%
same,% Recovered Dose Combined Excreta,[4],68.42% and 74.71% and 66.21% and 69.07% and 68.00% and 70.97% and 76.86% and 72.59%
same,% Recovered Dose GI Tract,[4],1.75% and 0.46% and 0.91% and 0.70% and 0.71% and 0.57% and 0.52% and 0.47%
same,% Recovered Dose Kidney,[4],0.14% and 0.28% and 0.20% and 0.21% and 0.11% and 0.15% and 0.17%
same,% Recovered Dose Liver,[4],5.98% and 3.55% and 5.50% and 4.81% and 4.85% and 4.26% and 4.33% and 4.96%
same,% Recovered Dose Soft Tissue,[4],2.40% and 1.47% and 2.34% and 2.95% and 2.10% and 1.91% and 1.81% and 1.44%
same,% Recovered Dose Total Bone,[4],21.31% and 18.54% and 24.85% and 22.27% and 24.22% and 22.15% and 16.34% and 20.37%
same,"% Recovered Dose Urine per Day, Day 2",[5],7.92% and 8.51% and 7.65% and 2.69% and 6.20% and 7.54% and 5.46% and 8.58%
same,"% Recovered Dose Urine per Day, Day 3",[5],3.90% and 4.79% and 4.05% and 2.57% and 3.66% and 4.86% and 4.80% and 5.85%
same,"% Recovered Dose Urine per Day, Day 4",[5],3.05% and 3.34% and 2.72% and 0.84% and 2.10% and 3.61% and 2.55% and 2.58%
same,"% Recovered Dose Urine per Day, Day 5",[5],1.94% and 1.91% and 2.47% and 1.16% and 1.62% and 3.01% and 2.10% and 2.23%
same,"% Recovered Dose Urine per Day, Day 6",[5],1.36% and 1.21% and 1.73% and 0.80% and 1.18% and 1.69% and 1.57% and 1.37%
same,"% Recovered Dose Urine per Day, Day 7",[5],1.74% and 1.68% and 1.50% and 1.67% and 1.63% and 1.84% and 1.87% and 1.77%
same,"% Recovered Dose Urine per Day, Day 8",[5],0.96% and 0.76% and 0.90% and 0.53% and 0.64% and 0.85% and 1.18% and 0.65%
same,"% Recovered Dose Urine per Day, Day 9",[5],0.92% and 0.50% and 1.01% and 0.62% and 0.49% and 0.72% and 0.87% and 0.69%
same,"% Recovered Dose Urine per Day, Day 10",[5],0.35% and 0.32% and 0.27% and 0.21% and 0.49% and 0.38%
same,"% Recovered Dose Urine per Day, Day 11",[5],0.20% and 0.84% and 0.25% and 0.28% and 0.33% and 0.44% and 0.55% and 0.31%
same,% Recovered Dose - Feces per Day,"male mice, feces day 2, Day 11 necropsy",2.78% and 4.90% and 1.40% and 7.06% and 3.40% and 6.60% and 7.14% and 5.64%
same,% Recovered Dose - Feces per Day,"male mice, feces day 3, Day 11 necropsy",3.63% and 6.69% and 4.80% and 10.31% and 4.70% and 6.91% and 8.25% and 7.45%
same,% Recovered Dose - Feces per Day,"male mice, feces day 4, Day 11 necropsy",3.78% and 4.47% and 3.18% and 7.97% and 3.38% and 4.66% and 5.75% and 4.65%
same,% Recovered Dose - Feces per Day,"male mice, feces day 5, Day 11 necropsy",1.51% and 1.78% and 1.71% and 3.62% and 1.81% and 1.45% and 2.38% and 1.92%
same,% Recovered Dose - Feces per Day,"male mice, feces day 6, Day 11 necropsy",1.64% and 2.00% and 2.45% and 2.79% and 1.57% and 1.96% and 1.83% and 1.74%
same,% Recovered Dose - Feces per Day,"male mice, feces day 7, Day 11 necropsy",1.05% and 1.04% and 1.03% and 2.05% and 1.28% and 0.78% and 1.36% and 3.81%
same,% Recovered Dose - Feces per Day,"male mice, feces day 8, Day 11 necropsy",0.81% and 0.75% and 1.29% and 1.70% and 0.85% and 0.78% and 1.19% and 1.40%
same,% Recovered Dose - Feces per Day,"male mice, feces day 9, Day 11 necropsy",0.43% and 0.51% and 0.65% and 1.29% and 0.58% and 0.39% and 0.64% and 0.87%
same,% Recovered Dose - Feces per Day,"male mice, feces day 10, Day 11 necropsy",0.38% and 0.40% and 0.33% and 0.79% and 0.42% and 0.30% and 0.52% and 0.68%
same,% Recovered Dose - Feces per Day,"male mice, feces day 11, Day 11 necropsy",0.37% and 0.35% and 0.40% and 0.78% and 0.36% and 0.30% and 0.52% and 0.77%
same,"^238Pu excretion, Total Excretion, Avg",[6],70.98 percent recovered dose
same,"^238Pu excretion, Total Feces, Avg",[6],35.89 percent recovered dose
same,"^238Pu excretion, Total Urine, Avg",[6],35.09 percent recovered dose
same,"^238Pu retention, GI Tract, Avg",[6],0.76 percent recovered dose
same,"^238Pu retention, Kidney, Avg",[6],0.17 percent recovered dose
same,"^238Pu retention, Liver, Avg",[6],4.78 percent recovered dose
same,"^238Pu retention, Soft Tissue, Avg",[6],2.05 percent recovered dose
same,"^238Pu retention, Total Body, Avg",[6],29.02 percent recovered dose
same,"^238Pu retention, Total Bone, Avg",[6],21.26 percent recovered dose
same,"238Pu percent increase in excretion, Total Excretion",[7],149.50%
same,"238Pu percent increase in excretion, Total Feces",[7],140.57%
same,"238Pu percent increase in excretion, Total Urine",[7],159.88%
same,"^238Pu percent tissue reduction, GI Trace",[8],61.32%
same,"^238Pu percent tissue reduction, Kidney",[8],47.89%
same,"^238Pu percent tissue reduction, Liver",[8],71.51%
same,"^238Pu percent tissue reduction, Soft Tissue",[8],42.09%
same,"^238Pu percent tissue reduction, Total Body",[8],44.74%
same,"^238Pu percent tissue reduction, Total Bone",[8],28.92%
same,tissue content of 238Pu compared to saline control group,male,large reductions
